Each structure is given as a SMILES string. Entries after “also recorded” stand apart in the source; their conditions may differ.

Data set [1] is described as follows: Solid state forms of upadacitinib: chemical and physical stability.
Data set [2] is described as follows: Solid state forms of upadacitinib: hygroscopicity. In kind it is physicochemical.
The nature of data set [3]: Solid state forms of upadacitinib: solubility and bioavailability. In kind it is physicochemical.
For data set [4], the system named is subjects with moderately to severely active ulcerative colitis. In words: Example 20: Phase 3 maintenance study in ulcerative colitis (Study M14-234 Substudy 3), upadacitinib 15 mg or 30 mg QD vs placebo, 52 weeks. In kind it is in vivo, human. The note with it: for Clinical remission per Adapted Mayo Score at Week 52, % / Clinical remission at Week 52, Treatment Difference vs. PBO / Discontinued from Study Drug, Adverse events (primary reason), % / Discontinued from Study Drug, Lack of efficacy (primary reason), %: ITTA; for Clinical remission per Adapted Mayo Score at Week 52, % / Clinical remission at Week 52, Treatment Difference vs. PBO: NRI-C; for Corticosteroid-free remission, % of patients: patients in remission at completion of the 8-week induction studies; for Clinical remission (per Adapted Mayo Score) / Endoscopic improvement / Histologic-endoscopic mucosal improvement / Corticosteroid-free clinical remission: Week 52; for Corticosteroid-free clinical remission: among patients with clinical remission after 8 weeks of induction.

Data set [5] can be described thus: Pharmacokinetic exposure of once-daily formulation versus immediate-release formulation (AUC, Cmin, Cmax). In kind it is in vivo, human. To be noted: 15 mg QD and 30 mg QD once-daily formulation versus 6 mg BID and 12 mg BID immediate-release formulation, respectively. Here is the method:
This study evaluated two maintenance doses of upadacitinib at 15 mg and 30 mg QD. […] In addition, all the currently available PK, pharmacodynamic, safety, and efficacy data from upadacitinib studies were used to support the selection of these doses. […] Following induction with 45 mg QD, doses of 15 mg QD and 30 mg QD are expected to maintain clinical and endoscopic response while having better long-term safety profile compared to higher doses. Doses of 15 mg QD and 30 mg QD for up to 240 weeks were expected to be efficacious with an acceptable safety profile.

Data set [6] relates to subjects with moderately to severely active ulcerative colitis. Put plainly: Example 19: Phase 3 induction study in ulcerative colitis (Study M14-675), upadacitinib 45 mg QD vs placebo.
Procedure: The primary objective of this study is to evaluate the efficacy and safety of upadacitinib 45 mg once daily (QD) compared to placebo in inducing clinical remission (per Adapted Mayo score) in subjects with moderately to severely active ulcerative colitis (UC).
The secondary objectives of the study are to evaluate the efficacy of upadacitinib 45 mg QD comparing with placebo in ranked secondary endpoints of achieving endoscopic improvement, endoscopic remission, clinical response per Adapted Mayo Score, clinical response per Partial Adapted Mayo score, histologic-endoscopic mucosal improvement, no bowel urgency, no abdominal pain, histologic improvement, mucosal healing, and change in IBDQ total score and FACIT-F score.
Males and females between 18 and 75 years of age with a diagnosis of moderately to severely active UC. […] The study will consist of a mixed population: biologic-inadequate responders (bio-IR) and non-biologic-inadequate responders (non-bio-IR).
The randomization will be stratified by bio-IR status (bio-IR vs non-bio-IR), corticosteroid use (yes or no) and Adapted Mayo score (≤7 or >7) at Baseline. Within bio-IR, the randomization will be further stratified by number of prior biologic treatments (≤1 or >1). Within non-bio-IR, the randomization will be further stratified by previous biologic use (yes or no).
The blind from Part 1 will not be broken for the duration of the study as subjects will be assessed as clinical non-responders at the 8 Week Visit of Part 1 and will be moved to Part 2 for further treatment in the study without identifying their initial treatment assignment. All eligible subjects entering Part 2 will receive open-label treatment with upadacitinib 45 mg QD for 8 additional weeks (until Week 16). At Week 16, an endoscopy will be performed to evaluate the treatment effect. A flexible rectosigmoidoscopy is recommended. However, the use of flexible sigmoidoscopy or colonoscopy is at the investigators' discretion based on local practice.
For the assessment of the clinical endpoints, the stool frequency and the rectal bleeding subscore will be calculated as an average of the entries recorded into the subject's diary from the most recent consecutive 3-day period prior to each study visit. If diary entries from the 3 consecutive days prior to the visit are not available, the 3 most recent consecutive days in the last 10 days will be utilized. If data is not available for 3 consecutive days, the average of the entries from the most recent 3 non-consecutive days in the last 10 days will be utilized. Clinical endpoints of abdominal pain and bowel urgency from subject diaries will be measured at the same time period as the stool frequency and rectal bleeding subscores. Proportion of subjects who report no abdominal pain and proportion of subjects who report no bowel urgency in the 3 days will be estimated.
Subjects will undergo a full colonoscopy with biopsy for histologic assessment during Screening with local investigator assessment for Mayo endoscopic subscore for initial eligibility assessment, confirmed by a central reader prior to randomization. At end of treatment (Week 8 in Part 1) a full colonoscopy or flexible sigmoidoscopy, depending on the extent of disease at Screening, will be performed.
The endoscopic subscore result from the central reader during the screening period will be used to evaluate the eligibility of a subject to enroll in the study and for all efficacy assessments at Week 8 of Part 1.
Male or female between 16 and 75 years of age at Baseline.
The test system of data set [7] is subjects with moderately to severely active CD. Put plainly: Study M13-740: Phase 2 induction study, immediate-release upadacitinib vs placebo. In kind it is in vivo, human. The note with it: induction phase of Study M13-740, immediate-release formulation, doses of 6 mg BID and higher.

As to `CC[C@@H]1CN(C(=O)NCC(F)(F)F)C[C@@H]1c1cnc2cnc3[nH]ccc3n12` [Freebase Hydrate Form B], the Physical stability result in data set [1] was “not physically stable; also recorded: not stable after isolation at ambient conditions”.
In the case of `CC[C@@H]1CN(C(=O)NCC(F)(F)F)C[C@@H]1c1cnc2cnc3[nH]ccc3n12.CC[C@@H]1CN(C(=O)NCC(F)(F)F)C[C@@H]1c1cnc2cnc3[nH]ccc3n12.O` [Freebase Hydrate Form C], the Chemical stability result in data set [1] was “good chemical stability”. Moreover, the Hygroscopicity result in data set [2] is listed as “low hygroscopicity”.
For the compound `CC[C@@H]1CN(C(=O)NCC(F)(F)F)C[C@@H]1c1cnc2cnc3[nH]ccc3n12` [Freebase Anhydrate Form D], in data set [1], the Physical stability entry is “metastable relative to Freebase Hydrate Form C”. The Hygroscopicity result in data set [2] is listed as “reversibly hygroscopic”. Moreover, the “Water content (hygroscopicity)” value in data set [2] (90% RH at 25° C.) is recorded as “up to 1.8%”.
Take `CC[C@@H]1CN(C(=O)NCC(F)(F)F)C[C@@H]1c1cnc2cnc3[nH]ccc3n12` [Amorphous Freebase]: in data set [1], the Chemical stability entry is “acceptable chemical stability”; the “Stability to light and peroxide” value is “acceptable stability to light and peroxide”. Moreover, in data set [2], the Hygroscopicity entry was “hygroscopic”. For the same compound, in data set [2] (25° C./90% relative humidity), the “Water content (hygroscopicity)” value is listed as ≤ 12 % by weight. In addition, the Solubility result in data set [3] was “greater solubility”.
In the case of `CC[C@@H]1CN(C(=O)NCC(F)(F)F)C[C@@H]1c1cnc2cnc3[nH]ccc3n12` [UPA, upadacitinib], the “Clinical remission per Adapted Mayo Score at Week 52, %” value in data set [4] (Bio-IR, UPA 15 mg QD N = 71) came to 40.5%; in data set [4] (Bio-IR, UPA 30 mg QD N = 73), 49.1%; in data set [4] (Non-Bio-IR, UPA 15 mg QD N = 77), 43.9%; in data set [4] (Non-Bio-IR, UPA 30 mg QD N = 81), 54.0%. The “Clinical remission at Week 52, Treatment Difference vs. PBO” value came to 33.0% in data set [4] (Bio-IR, UPA 15 mg); 41.6% in data set [4] (Bio-IR, UPA 30 mg); 26.3% in data set [4] (Non-Bio-IR, UPA 15 mg); 36.3% in data set [4] (Non-Bio-IR, UPA 30 mg). Moreover, the “Discontinued from Study Drug, Adverse events (primary reason), %” value in data set [4] (UPA 15 mg QD (N = 148)) is “(2.7) %”; in data set [4] (UPA 30 mg QD (N = 154)), “(5.2) %”. Further, the “Discontinued from Study Drug, Lack of efficacy (primary reason), %” value in data set [4] (UPA 15 mg QD (N = 148)) was “(23.6) %”; in data set [4] (UPA 30 mg QD (N = 154)) it was “(7.8) %”.
As to `CC[C@@H]1CN(C(=O)NCC(F)(F)F)C[C@@H]1c1cnc2cnc3[nH]ccc3n12` [upadacitinib, (3S,4R)-3-ethyl-4-(3H-imidazo[1,2-a]pyrrolo[2,3-e]pyrazin-8-yl)-N-(2,2,2-trifluoroethyl)pyrrolidine-1-carboxamide], the “Clinical remission per Adapted Mayo score at Week 52, proportion of subjects” value in data set [4] (15 mg QD maintenance after 8 weeks 45 mg QD induction) is 42.3%. For the same compound, the Safety and tolerability result in data set [4] (15 mg and 30 mg QD, 52 weeks) was “generally safe and well tolerated”. The “Corticosteroid-free remission, % of patients” value in data set [4] (15 mg cohort) is recorded as 57%. Also, in data set [4] (15 mg once daily (n = 148)), the “Clinical remission (per Adapted Mayo Score)” value was 42%, the Endoscopic improvement is recorded as 49% and the Histologic-endoscopic mucosal improvement was determined as 35%. The compound also displayed a Corticosteroid-free clinical remission in data set [4] (15 mg once daily, N = 47) of 57%. Further, in data set [4] (30 mg QD maintenance after 8 weeks 45 mg QD induction), the “Clinical remission per Adapted Mayo score at Week 52, proportion of subjects” value came to 51.7%. The “Corticosteroid-free remission, % of patients” value in data set [4] (30 mg cohort) worked out at 68%. Also, in data set [4] (30 mg once daily (n = 154)), the “Clinical remission (per Adapted Mayo Score)” value worked out at 52%, the Endoscopic improvement came out at 62% and the Histologic-endoscopic mucosal improvement came to 49%. For the same compound, the Corticosteroid-free clinical remission in data set [4] (30 mg once daily, N = 58) is reported as 68%. In addition, in data set [4] (both upadacitinib groups (15 mg, 30 mg)), the “Clinical response per Partial Adapted Mayo Score and clinical remission rate per Partial Mayo Score over time” value is on record as “maintained over time until Week 52”. Further, the “Upadacitinib pharmacokinetics, induction vs maintenance periods” value in data set [4] (subjects with UC) is “consistent between the induction and maintenance periods”. In addition, in data set [5], the “daily area under the concentration-time curve (AUC)” value was “equivalent”; the “minimum plasma concentration (Cmin) and maximum plasma concentration (Cmax)” value was “comparable”. Moreover, the “Rates of severe adverse events and AEs leading to study drug discontinuation compared to placebo” value in data set [6] (45 mg) is on record as “lower”. In data set [6] (45 mg QD), the “Onset of clinical response per Partial Adapted Mayo Score” value is recorded as “as early as Week 2”; the “Patients with clinical response at week 8” value is on record as “approximately 75%”; the “Rates of neutropenia, lymphopenia, hepatic disorder, and CPK elevation compared to placebo” value is given as “higher”; the “Tolerability of eight-week induction treatment” value is “well tolerated”. Also, the “Week 8 non-responding patients with clinical response by 16 weeks” value in data set [6] (45 mg QD, additional 8 weeks) is “approximately 50%”. Moreover, the Deaths result in data set [6] (45 mg QD, 8 weeks) is “No deaths were reported”. In addition, the “Primary and ranked secondary endpoints vs placebo” value in data set [6] (45 mg QD, 8 weeks, all p<0.001) was “met primary and all ranked secondary endpoints”. In addition, the “Proportion of subjects achieving clinical remission per Adapted Mayo score at Week 8” value in data set [6] (45 mg QD, SFS ≤1 and not greater than baseline, RBS 0, endoscopic subscore ≤1) was 33.5%. Moreover, in data set [7], the “clinical and endoscopic efficacy compared to placebo” value is “demonstrated the clinical and endoscopic efficacy”.

These data come from patent US11564922B2, “Methods of treating crohn's disease and ulcerative colitis” (AbbVie Inc., priority 2017, dated 2023).
